Results taken from publication PMC7049616 (Acta Pharmaceutica Sinica. B, 2019).

Experiments:
BaF3 = assay: Anti-proliferation assay; format: cell-based; details: Mus musculus, BaF3, 72 h
TEL-VEGFR1-BaF3 = assay: Anti-proliferation assay; format: cell-based; details: 72 h
TEL-VEGFR3-BaF3 = assay: Anti-proliferation assay; format: cell-based; details: 72 h
P210-BaF3 = assay: Anti-proliferation assay; format: cell-based; details: 72 h
TEL-BMX-BaF3 = assay: Anti-proliferation assay; format: cell-based; details: 72 h
TEL-EPHA1-BaF3 = assay: Anti-proliferation assay; format: cell-based; details: 72 h
TEL-EPHA2-BaF3 = assay: Anti-proliferation assay; format: cell-based; details: 72 h
TEL-CSF1R-BaF3 = assay: Anti-proliferation assay; format: cell-based; details: 72 h
TEL-FGFR2-BaF3 = assay: Anti-proliferation assay; format: cell-based; details: 72 h
TEL-FGFR3-BaF3 = assay: Anti-proliferation assay; format: cell-based; details: 72 h
TEL-FGFR4-BaF3 = assay: Anti-proliferation assay; format: cell-based; details: 72 h
Pharmacokinetics study = format: in vivo, Sprague–Dawley rats; details: male, Sprague-Dawley, rat, plasma
[1] = Acute toxicity study, single oral dose, 7 days observation; format: in vivo, ICR mice; details: for toxicity observation in acute toxicity study: ICR mice; for Number of deaths (death/total): female ICR mice, 7 days
HUVEC cells = details: after 12 h
TEL-PDGFRa-BaF3 = assay: cells; details: 72 h
TEL-PDGFRb-BaF3 = assay: cells; details: 72 h
TEL-cKIT-BaF3 = assay: cells; details: 72 h
TEL-RET-BaF3 = assay: cells; details: 72 h
TEL-FLT3-BaF3 = assay: cells; details: 72 h
TEL-FGFR1-BaF3 = assay: cells; details: 72 h

SMILES: CCN(CC)CCNC(=O)c1c(C)[nH]c(/C=C2\C(=O)Nc3ccc(F)cc32)c1C [Sunitinib]
- GI50 (BaF3): 2.56 µM
- GI50 (TEL-VEGFR1-BaF3): 0.35 µM
- GI50 (TEL-VEGFR3-BaF3): 0.57 µM
- GI50 (P210-BaF3): 1.46 µM
- GI50 (TEL-BMX-BaF3): 3.02 µM
- GI50 (TEL-EPHA1-BaF3): 3.21 µM
- GI50 (TEL-EPHA2-BaF3): 1.27 µM
- GI50 (TEL-CSF1R-BaF3): 0.011 µM
- GI50 (TEL-FGFR2-BaF3): 0.004 µM
- GI50 (TEL-FGFR3-BaF3): 0.37 µM
- GI50 (TEL-FGFR4-BaF3): 2.82 µM
- AUC(0-inf) (Pharmacokinetics study; iv, 1 mg/kg): 0.145 ± 0.0396 µg·h/mL
- AUC(0-t) (Pharmacokinetics study; iv, 1 mg/kg): 0.143 ± 0.0403 µg·h/mL
- Cmax (Pharmacokinetics study; iv, 1 mg/kg): 0.236 ± 0.0668 µg/mL
- MRT last (Pharmacokinetics study; iv, 1 mg/kg): 0.98 ± 0.04 h
- Tmax (Pharmacokinetics study; iv, 1 mg/kg): 0.33 h
- half-life (Pharmacokinetics study; iv, 1 mg/kg): 1.05 ± 0.34 h
- bioavailability (Pharmacokinetics study; oral, 10 mg/kg): 75.7%
- AUC(0-inf) (Pharmacokinetics study; po, 10 mg/kg): 1.1 ± 0.0967 µg·h/mL
- AUC(0-t) (Pharmacokinetics study; po, 10 mg/kg): 0.927 ± 0.107 µg·h/mL
- Cmax (Pharmacokinetics study; po, 10 mg/kg): 0.175 ± 0.0217 µg/mL
- MRT last (Pharmacokinetics study; po, 10 mg/kg): 7.63 ± 0.3 h
- Tmax (Pharmacokinetics study; po, 10 mg/kg): 1.25 ± 1.06 h
- half-life (Pharmacokinetics study; po, 10 mg/kg): 1.38 ± 0.46 h
- toxicity observation in acute toxicity study ([1]; single dose 500 mg/kg, recovered starting from day 4): apparent body weight loss
- toxicity observation in acute toxicity study ([1]; single dose 1000 mg/kg): unrecovered body weight loss
- toxicity observation in acute toxicity study ([1]; single dose 2000 mg/kg): mice death on day 3
- Number of deaths (death/total) ([1]; single oral dose 125 mg/kg): ♀: 0/2
- Number of deaths (death/total) ([1]; single oral dose 250 mg/kg): ♀: 0/2
- Number of deaths (death/total) ([1]; single oral dose 500 mg/kg): ♀: 0/2
- Number of deaths (death/total) ([1]; single oral dose 1000 mg/kg): ♀: 0/2
- Number of deaths (death/total) ([1]; single oral dose 2000 mg/kg): ♀: 2/2
- HUVEC migration in wound-healing assay (HUVEC cells): less migrated HUVEC cells
- GI50 (TEL-PDGFRa-BaF3): 0.001 µM
- GI50 (TEL-PDGFRb-BaF3): < 0.001 µM
- GI50 (TEL-cKIT-BaF3): 0.081 µM
- GI50 (TEL-RET-BaF3): 0.11 µM
- GI50 (TEL-FLT3-BaF3): 0.032 µM
- GI50 (TEL-FGFR1-BaF3): 1.68 µM
